Test results taken from publication PMC9503778, “Targeted Isolation of Antibiotic Brominated Alkaloids from the Marine Sponge Pseudoceratina durissima Using Virtual Screening and Molecular Networking” (Marine Drugs, 2022).
Converted amounts (≈) assume the structure as drawn. “And” between values parts separate entries of the source, which are not always exact repeats. Equal values may be shown once. Read-outs that look alike come from different tables or passages of the source.

Legend:
[1] = test system: C. albicans (yeast) ATCC 90028; experiment: Antimicrobial growth inhibition (CO-ADD), C. albicans; assay type: cell-based, Candida albicans; conditions: Candida albicans, ATCC90028; ATCC 90028; read-out: MIC C. albicans
Method: (§1) Compounds 1−3 and 5−12 were assayed against a selection of medically important pathogenic microorganisms (MRSA, E. coli, K. pneumoniae, A. baumanii, P. aeruginosa, C. albicans, C. neoformans), Table 4. […] To the best of our knowledge this compound had not been tested against any drug resistant strain of Gram-positive bacterium until this study.
(§2) The antimicrobial activity testing was performed by the Community for Antimicrobial Drug Discovery (CO-ADD). Compounds were assayed against a range of both Gram negative and Gram positive bacteria (see Supplementary Materials S3) including methicillin-resistant Staphylococcus aureus (MRSA) (G+), Escherichia coli (G-), Klebsiella pneumoniae (G-), Acinetobacter baumannii (G-), Pseudomonas aeruginosa (G-) together with two species of fungus (Candida albicans and Cryptococcus neoformans).
(§3) S3. Antimicrobial activity testing methodology
(§4) The compounds submitted to CO-ADD were evaluated in duplicate (n = 2) against seven microorganisms (five bacteria and two fungi) at a concentration of 32 µg/mL in a 384-well, non-binding surface plate (NBS) for each bacterial/fungal strain, keeping the final DMSO concentration to a maximum of 1% DMSO. All bacteria were cultured in cation-adjusted […]
(§5) Fungal strains were cultured for 3 days on Yeast Extract-Peptone Dextrose (YPD) agar at 30 °C. A yeast suspension of 1 x 10^6 to 5 x 10^6 CFU/mL (as determined by OD530) was prepared from five colonies. The suspension was subsequently diluted and added to each well of the compound-containing plates giving a final cell density of fungi suspension of 2.5 x 10^3 CFU/mL and a total volume of 50 µL. All plates were covered and incubated at 35 °C for 24 h without shaking. […]
(§6) 2 h. The absorbance was measured using a Biotek Synergy HTX plate reader. The percentage of growth inhibition was calculated for each well, using negative control (medium only) and positive control (bacteria without inhibitors) on the same plate as the references. The significance of inhibition values was determined by modified Z-scores, calculated using the median and MAD of the samples (no controls) on the same plate. Samples with inhibition value above 80% and Z-score above 2.5 for either replicate (n = 2 on different plates) were classed as actives.
(§7) Colistin and vancomycin were used as positive bacterial inhibitor standards for Gram-negative and Gram-positive bac-teria, respectively. Fluconazole was used as a positive fungal inhibitor standard for C. albicans and C. neoformans. The antibiotics were provided in four concentrations, with two above and two below its MIC value, and plated into the first eight wells of column 23 of the 384-well NBS plates. The quality control (QC) of the assays was determined by the antimicrobial controls and the Z’-factor (using positive and negative controls). Each plate was deemed to fulfil the qual- […]
(§8) full growth inhibition at their highest concentration, and no growth inhibition at their lowest concentration. The seven […]
(§9) test microorganisms were Staphylococcus aureus MRSA (ATCC 43300), Escherichia coli (ATCC 25922), Klebsiella pneu-moniae (ATCC 700603), Acinetobacter baumanii (ATCC19606), Pseudomonas aeruginosa (ATCC 27853), Candida albicans (ATCC 90028) and Cryptococcus neoformans var. grubii (H99; ATCC 208821).
(§10) S4. Anthelmintic activity testing methodology
(§11) Dose-response evaluations were carried out to estimate the half-maximal inhibitory concentrations (IC50 values) for compounds against Haemonchus contortus (Haecon-5 strain) exsheathed third-stage larvae (xL3s). H. contortus were maintained in experimental sheep and procured in accordance with the institutional animal ethics guidelines and the regulations of Australia (permit no. 1714374; University of Melbourne). Immediately prior to use, third-stage larvae (L3s) were exsheathed and sterilised by incubation in 0.15% (v/v) bleach at 38 °C for 20 min, followed by washes in sterile saline at room temperature (22-24 °C). […]

[2] = test system: E. Coli (G-) strain ATCC 25922; experiment: Antimicrobial growth inhibition (CO-ADD), E. coli; assay type: cell-based, Escherichia coli; conditions: for % inhibition E. coli: 32 µg/mL; for % inhibition E. coli / inhibition at 32 µg/mL: duplicate (n = 2) values; for inhibition at 32 µg/mL / MIC: Escherichia coli; for inhibition at 32 µg/mL: ATCC25922, 32 µg/mL, read-out: % inhibition E. coli; for MIC: ATCC25922, read-out: MIC E. coli
Method: as §1, §2, §3
(§12) The compounds submitted to CO-ADD were evaluated in duplicate (n = 2) against seven microorganisms (five bacteria and two fungi) at a concentration of 32 µg/mL in a 384-well, non-binding surface plate (NBS) for each bacterial/fungal strain, keeping the final DMSO concentration to a maximum of 1% DMSO. All bacteria were cultured in cation-adjusted Mueller-Hinton broth (CAMHB) at 37 °C overnight. A sample of each culture was then diluted 40-fold in fresh broth and incubated at 37 °C for 1.5-3 h. The resultant mid-log phase cultures were diluted (CFU/mL measured by OD600), then added to each well of the compound containing plates, giving a cell density of 5x10^5 CFU/mL and a total volume of 50 µL. All the plates were covered and incubated at 37 °C for 18 h without shaking. […] Inhibition of bacterial growth was determined measuring absorbance at 600 nm (OD600) using a Tecan M1000 Pro mon-ochromator plate reader. […]
as §6, §7, §8, §9, §10
as §11, with “in” for “in sterile saline at room temperature (22-24 °C).”

[3] = test system: P. auruginosa (G-) strain ATCC 27853; experiment: Antimicrobial growth inhibition (CO-ADD), P. aeruginosa; assay type: cell-based, Pseudomonas aeruginosa; conditions: ATCC 27853; for MIC: Pseudomonas aeruginosa, ATCC27853, read-out: MIC P. aeruginosa
Method: as §1, §2, §3, §12, §6, §7, §8, §9, §10
as §11, with “in” for “in sterile saline at room temperature (22-24 °C).”

[4] = test system: C. neoformans var. grubii strain ATCC 208821; experiment: Antimicrobial growth inhibition (CO-ADD), C. neoformans; assay type: cell-based; conditions: Cryptococcus neoformans, ATCC208821; var. grubii ATCC 208821; read-out: MIC C. neoformans
[5] = test system: K. pneumoniae (G-) strain ATCC 700603; experiment: Antimicrobial growth inhibition (CO-ADD), K. pneumoniae; assay type: cell-based, Klebsiella pneumoniae; conditions: for % inhibition K. pneumoniae: 32 µg/mL; for % inhibition K. pneumoniae / inhibition at 32 µg/mL: duplicate (n = 2) values; for inhibition at 32 µg/mL / MIC: Klebsiella pneumoniae; for inhibition at 32 µg/mL: ATCC700603, 32 µg/mL, read-out: % inhibition K. pneumoniae; for MIC: ATCC700603, read-out: MIC K. pneumoniae
Method: as §1, §2, §3, §12, §6, §7, §8, §9, §10
as §11, with “in” for “in sterile saline at room temperature (22-24 °C).”

[6] = Cytotoxicity assay (CO-ADD); assay type: cell-based; conditions: human, human embryonic kidney cells
human red blood cells = experiment: Haemolysis assay (CO-ADD); assay type: cell-based
[7] = test system: A. baumannii (G-) strain ATCC 19606; experiment: Antimicrobial growth inhibition (CO-ADD), A. baumannii; assay type: cell-based, Acinetobacter baumannii; conditions: for MIC: Acinetobacter baumannii, ATCC19606, read-out: MIC A. baumannii
Method: as §1, §2, §3, §12, §6, §7, §8, §9, §10
as §11, with “in” for “in sterile saline at room temperature (22-24 °C).”

[8] = test system: MRSA (G+) strain ATCC 43300; experiment: Antimicrobial growth inhibition (CO-ADD), MRSA; assay type: cell-based, Staphylococcus aureus; conditions: for MIC: Staphylococcus aureus, read-out: MIC MRSA
Method: as §1, §2, §3, §12, §6, §7, §8, §9, §10
as §11, with “in” for “in sterile saline at room temperature (22-24 °C).”

[9] = test system: C. neoformans var. grubii strain ATCC 208821; experiment: Antimicrobial growth inhibition (CO-ADD), C. neoformans; assay type: cell-based, Cryptococcus neoformans; conditions: duplicate (n = 2) values
Method: as §1, §2, §3, §4, §5
as §6, with “Growth inhibition of C. albicans was determined measuring absorbance at 530 nm (OD530), while the growth inhibition of C. neoformans was determined measuring the difference in absorbance between 600 and 570 nm (OD600-570), after the addition of resazurin (0.001% final concentration) and incubation at 35 °C for an additional 2 h.” for “2 h.”
as §7, §8, §9, §10
Dose-response evaluations were carried out to estimate the half-maximal inhibitory concentrations (IC50 values) for compounds against Haemonchus contortus (Haecon-5 strain) exsheathed third-stage larvae (xL3s). H. contortus were maintained in experimental sheep and procured in accordance with the institutional animal ethics guidelines and the […]

[10] = test system: zebrafish larvae at 5 dpf; set-up: method as in PMID 35200664; conditions: cited from earlier work
[11] = test system: Mediterranean fish species Blennius sphinx; set-up: method as in PMID 15018063; conditions: cited from earlier work
[12] = ATCC 25922, MIC = concentration at which growth inhibited by ≥80%
[13] = ATCC 43300, MIC = concentration at which growth inhibited by ≥80%, range 0.25−32 µg/mL
[14] = 32 µg/mL, duplicate (n = 2) values

## COC1(OC)C(Br)=CC(O)(CC#N)C=C1Br [Compound 7, 2-(3,5-dibromo-1-hydroxy-4,4-dimethoxycyclohexa-2,5-dien-1-yl)acetonitrile]
[1]
  MIC: > 32 µg/mL
[2]
  % inhibition E. coli: 6.2%
  inhibition at 32 µg/mL: 11.2%
[2]; [12]
  MIC: > 32 µg/mL
[3]
  MIC: > 32 µg/mL
[4]
  MIC: > 32 µg/mL
[5]
  % inhibition K. pneumoniae: 13.3%
  inhibition at 32 µg/mL: 10.6%
[5]; ATCC 700603
  MIC: > 32 µg/mL
[6]
  CC50: > 32 µg/mL
Human red blood cells
  Haemolysis (HC10): >32 µg/mL
[7]; ATCC 19606
  MIC: > 32 µg/mL
[8]; [13]
  MIC: > 32 µg/mL

## COC(=O)Cc1c(O)cc(Br)c(O)c1Br [Compound 10, subereaphenol B]
[1]
  MIC: > 32 µg/mL
[2]
  % inhibition E. coli: 15.8% and 6.4%
[2]; [12]
  MIC: > 32 µg/mL
[9]; 32 µg/mL
  % inhibition C. neoformans: 8.5%
[9]; Cryptococcus neoformans, ATCC208821, 32 µg/mL, read-out: % inhibition C. neoformans
  inhibition at 32 µg/mL: 12.4%
[3]
  MIC: > 32 µg/mL
[4]
  MIC: > 32 µg/mL
[5]
  % inhibition K. pneumoniae: 9.3%
  inhibition at 32 µg/mL: 6.1%
[5]; ATCC 700603
  MIC: > 32 µg/mL
[6]
  CC50: > 32 µg/mL
Human red blood cells
  Haemolysis (HC10): >32 µg/mL
[7]; [14]
  % inhibition A. baumannii: −1.4% and −9.2%
[7]; ATCC 19606
  MIC: > 32 µg/mL
[8]; [13]
  MIC: > 32 µg/mL

## COC(=O)NCCCCNC(=O)C1=NO[C@]2(C=C(Br)C(OC)=C(Br)[C@@H]2O)C1 [Compound 12, subereamolline C]
[1]
  MIC: > 32 µg/mL
[2]
  % inhibition E. coli: 6.4%
  inhibition at 32 µg/mL: 12.3%
[2]; [12]
  MIC: > 32 µg/mL
[3]
  MIC: > 32 µg/mL
[4]
  MIC: > 32 µg/mL
[5]
  % inhibition K. pneumoniae: 14.0% and 5.6%
[5]; ATCC 700603
  MIC: > 32 µg/mL
[6]
  CC50: > 32 µg/mL
Human red blood cells
  Haemolysis (HC10): >32 µg/mL
[7]; ATCC 19606
  MIC: > 32 µg/mL
[8]; [14]
  % inhibition MRSA: 0.4% and 8.2%
[8]; [13]
  MIC: > 32 µg/mL

## OC(Cn1cncn1)(Cn1cncn1)c1ccc(F)cc1F [Fluconazole, reference compound]
[1]
  MIC: 0.125 µg/mL
[4]
  MIC: 8 µg/mL (≈ 26.1 µM)

## CC[C@H](C)[C@H](NC(=O)CN)C(=O)NCC(=O)N[C@@H](C)C(=O)N[C@H](C(=O)N[C@@H](CC(C)C)C(=O)N[C@@H](CCCCN)C(=O)N[C@H](C(=O)N[C@@H](CC(C)C)C(=O)N[C@H](C(=O)N[C@H](C(=O)NCC(=O)N[C@@H](CC(C)C)C(=O)N1CCC[C@H]1C(=O)N[C@@H](C)C(=O)N[C@@H](CC(C)C)C(=O)N[C@H](C(=O)N[C@@H](CO)C(=O)N[C@@H](Cc1c[nH]c2ccccc12)C(=O)N[C@H](C(=O)N[C@@H](CCCCN)C(=O)N[C@@H](CCCNC(=N)N)C(=O)N[C@@H](CCCCN)C(=O)N[C@@H](CCCNC(=N)N)C(=O)N[C@@H](CCC(N)=O)C(=O)N[C@@H](CCC(N)=O)C(N)=O)[C@@H](C)CC)[C@@H](C)CC)[C@@H](C)O)[C@@H](C)O)C(C)C)C(C)C [Melittin, reference compound]
Human red blood cells
  Haemolysis (HC10): Melittin: 2.7 µg/mL

## CC/C(=C(\c1ccccc1)c1ccc(OCCN(C)C)cc1)c1ccccc1 [Tamoxifen, reference compound]
[6]
  CC50: 9 µg/mL (≈ 24.2 µM)

## CN[C@H](CC(C)C)C(=O)N[C@H]1C(=O)N[C@@H](CC(N)=O)C(=O)N[C@H]2C(=O)N[C@H]3C(=O)N[C@H](C(=O)N[C@H](C(=O)O)c4cc(O)cc(O)c4-c4cc3ccc4O)[C@H](O)c3ccc(c(Cl)c3)Oc3cc2cc(c3O[C@@H]2O[C@H](CO)[C@@H](O)[C@H](O)[C@H]2O[C@H]2C[C@](C)(N)[C@H](O)[C@H](C)O2)Oc2ccc(cc2Cl)[C@H]1O [Vancomycin, reference compound]
[8]
  MIC: 1 µg/mL

## COC1=C(Br)[C@@H](O)[C@]2(C=C1Br)CC(C(=O)NCCc1cnc[nH]1)=NO2 [aerophobin-1]
[10]
  concentration giving significant larval mortality: > 1000 nM

## COC1=C(Br)[C@H](O)[C@@]2(C=C1Br)CC(C(=O)NCCCc1cnc(N)[nH]1)=NO2 [aerophobin-2]
[10]
  concentration giving significant larval mortality: > 1000 nM

## Colistin [reference compound]
[2]; [12]
  MIC E. coli: Colistin: 0.125 µg/mL
[3]
  MIC P. aeruginosa: Colistin: 0.25 µg/mL
[5]; ATCC 700603
  MIC K. pneumoniae: Colistin: 0.25 µg/mL
[7]; ATCC 19606
  MIC A. baumannii: Colistin: 0.25 µg/mL

## aplysinamisin-1 [reference compound]
[11]
  feeding deterrent activity, Blennius sphinx: significant feeding deterrent activity
